Experimental data reported in BigSolDB 2.1.

O=[N+]([O-])c1ccc(Cl)c(Cl)c1
solubility (mole fraction) (in ethanol, 278.15 K): 0.02 | solubility (mole fraction) (in ethanol, 280.65 K): 0.0271 | solubility (mole fraction) (in ethanol, 283.15 K): 0.0352 | solubility (mole fraction) (in ethanol, 285.65 K): 0.0444 | solubility (mole fraction) (in ethanol, 288.15 K): 0.0549 | solubility (mole fraction) (in ethanol, 290.65 K): 0.0661 | solubility (mole fraction) (in ethanol, 293.15 K): 0.0769 | solubility (mole fraction) (in ethanol, 295.65 K): 0.0888 | solubility (mole fraction) (in ethanol, 298.15 K): 0.0997 | solubility (mole fraction) (in ethanol, 300.65 K): 0.111 | solubility (mole fraction) (in ethanol, 303.15 K): 0.119 | solubility (mole fraction) (in methanol, 278.15 K): 0.0208 | solubility (mole fraction) (in methanol, 280.65 K): 0.0251 | solubility (mole fraction) (in methanol, 283.15 K): 0.0296 | solubility (mole fraction) (in methanol, 285.65 K): 0.0353 | solubility (mole fraction) (in methanol, 288.15 K): 0.0422 | solubility (mole fraction) (in methanol, 290.65 K): 0.0505 | solubility (mole fraction) (in methanol, 293.15 K): 0.0611 | solubility (mole fraction) (in methanol, 295.65 K): 0.0724 | solubility (mole fraction) (in methanol, 298.15 K): 0.0873 | solubility (mole fraction) (in methanol, 300.65 K): 0.105 | solubility (mole fraction) (in methanol, 303.15 K): 0.125
